Source: patent US10092002B2, “Herbicidal composition comprising nicosulfuron or its salt and S -metolachlor or its salt” (ISHIHARA SANGYO KAISHA, LTD., priority 2011, dated 2018)

What was measured:
Type in all cases: in vivo
[1] = test system: common cocklebur (Xanthium strumarium L.); assay: Test Example 1: foliar treatment of common cocklebur in pots, visual growth inhibition rate; settings: foliar treatment at 4.3 to 4.8-leaf stage, 22nd day after treatment
Description: When the herbicidal activity in a case where two active ingredients are combined, is larger than the simple sum of the respective herbicidal activities of the two active ingredients (the expected activity), it is called a synergistic effect. The activity expected by the combination of two active ingredients can be calculated as follows (Colby S. R., “Weed”, vol. 15, p. 20-22, 1967). E1=α+β-(α×β÷100) In a case where three active ingredients are combined, the activity can be similarly calculated as follows. […] Upland field soil was put into a 1/1,000,000 ha pot, and seeds of common cocklebur (Xanthium strumarium L.) were sown. […] Dual Gold, manufactured by Syngenta Crop Protection AG), SC agent containing terbuthylazine as an active ingredient (tradename: Click, manufactured by BASF), SC agent containing mesotrione as an active ingredient (tradename: Callisto, manufactured by Syngenta Crop Protection AG) and WG agent containing prosulfuron as an active ingredient (tradename: Peak, manufactured by Syngenta Crop Protection AG) were diluted with water in an amount corresponding to 1,000 Uha, and applied for foliar treatment by a small sprayer. On the 22nd day after treatment, the state of growth of the common cocklebur was visually observed to determine the growth inhibition rate in accordance with the following evaluation standard. The growth inhibition rate (%) (measured value) and the growth inhibition rate (%) (calculated value) calculated by the Colby's formula are shown in Table 1.

[2] = test system: Japanese millet (Echinochloa utilis Ohwi et Yabuno); assay: Test Example 2: soil treatment, Japanese millet, visual growth inhibition rate; settings: soil treatment the day after sowing, 27th day after treatment
Description: When the herbicidal activity in a case where two active ingredients are combined, is larger than the simple sum of the respective herbicidal activities of the two active ingredients (the expected activity), it is called a synergistic effect. The activity expected by the combination of two active ingredients can be calculated as follows (Colby S. R., “Weed”, vol. 15, p. 20-22, 1967). E1=α+β−(α×β÷100) On the 22nd day after treatment, the state of growth of the common cocklebur was visually observed to determine the growth inhibition rate in accordance with the following evaluation standard. The growth inhibition rate (%) (measured value) and the growth inhibition rate (%) (calculated value) calculated by the Colby's formula are shown in Table 1. […] Upland field soil was put into a 1/1,000,000 ha pot, and seeds of Japanese millet (Echinochloa utilis Ohwi et Yabuno) were sown. […] On the 27th day after treatment, the state of growth of the Japanese millet was visually observed to determine the growth inhibition rate.

[3] = test system: wild oat (Avena fatua L.); assay: Test Example 3: soil treatment, wild oat, visual growth inhibition rate; settings: soil treatment the day after sowing, 14th day after treatment
Description: When the herbicidal activity in a case where two active ingredients are combined, is larger than the simple sum of the respective herbicidal activities of the two active ingredients (the expected activity), it is called a synergistic effect. The activity expected by the combination of two active ingredients can be calculated as follows (Colby S. R., “Weed”, vol. 15, p. 20-22, 1967). […] In a case where three active ingredients are combined, the activity can be similarly calculated as follows. […] On the 22nd day after treatment, the state of growth of the common cocklebur was visually observed to determine the growth inhibition rate in accordance with the following evaluation standard. The growth inhibition rate (%) (measured value) and the growth inhibition rate (%) (calculated value) calculated by the Colby's formula are shown in Table 1. […] On the 14th day after treatment, the state of growth of the wild oat was visually observed to determine the growth inhibition rate.

[4] = test system: summergrass (Digitaria ciliaris (Retz.) Koel); assay: Test Example 5: foliar treatment of summergrass in 7 to 9-leaf stage, visual growth inhibition rate; settings: foliar treatment at 7 to 9-leaf stage, 14th day after treatment
Description: When the herbicidal activity in a case where two active ingredients are combined, is larger than the simple sum of the respective herbicidal activities of the two active ingredients (the expected activity), it is called a synergistic effect. The activity expected by the combination of two active ingredients can be calculated as follows (Colby S. R., “Weed”, vol. 15, p. 20-22, 1967). E1=α+β-(α×β÷100) On the 22nd day after treatment, the state of growth of the common cocklebur was visually observed to determine the growth inhibition rate in accordance with the following evaluation standard. The growth inhibition rate (%) (measured value) and the growth inhibition rate (%) (calculated value) calculated by the Colby's formula are shown in Table 1. […] Upland field soil was put into a 1/1,000,000 ha pot, and seeds of summergrass (Digitaria ciliaris (Retz.) Koel) were sown. When the summergrass reached 7 to 9-leaf stage, predetermined amounts of […] Dual Gold (tradename) were diluted with water (corresponding to 300 L/ha) and applied for foliar treatment by a small sprayer. On the 14th day after treatment, the state of growth of the summergrass was visually observed to determine the growth inhibition rate.

[5] = test system: spotted knotweed (Polygonum lapathifolium L.); assay: Test Example 7: soil treatment, residual activity, spotted knotweed sown 14 days after treatment; settings: seeds sown on the 14th day after treatment, 21st day after sowing
Description: When the herbicidal activity in a case where two active ingredients are combined, is larger than the simple sum of the respective herbicidal activities of the two active ingredients (the expected activity), it is called a synergistic effect. The activity expected by the combination of two active ingredients can be calculated as follows (Colby S. R., “Weed”, vol. 15, p. 20-22, 1967). E1=α+β-(α×β÷100) On the 22nd day after treatment, the state of growth of the common cocklebur was visually observed to determine the growth inhibition rate in accordance with the following evaluation standard. The growth inhibition rate (%) (measured value) and the growth inhibition rate (%) (calculated value) calculated by the Colby's formula are shown in Table 1. […] Upland field soil was put into a 1/500,000 ha pot, and on the next day, predetermined amounts of […] Dual Gold (tradename) were diluted with water (corresponding to 300 L/ha) and applied for soil treatment by a small sprayer. On the 14th day after treatment, seeds of Japanese bristlegrass (Setaria faberi Herrm) and spotted knotweed, (Polygonum lapathifolium L.) were sown. On the 21st day after sowing, the state of growth of the Japanese bristlegrass and the spotted knotweed was visually observed to determined the growth inhibition rate.

Compound | inhibition at 30 g/ha ([1]; Xanthium strumarium, dose 30 g/ha, read-out: Growth inhibition rate (%) of common cocklebur, Measured value) [%] | inhibition at 15 g/ha ([2]; dose 15 g/ha, read-out: Growth inhibition rate (%) of Japanese millet, Measured value) [%] | inhibition at 10 g/ha ([3]; Avena fatua, dose 10 g/ha, read-out: Growth inhibition rate (%) of wild oat, Measured value) [%] | inhibition at 100 g/ha ([3]; Avena fatua, dose 100 g/ha, read-out: Growth inhibition rate (%) of wild oat, Measured value) [%] | inhibition at 15 g/ha ([4]; Digitaria ciliaris, dose 15 g/ha, read-out: Growth inhibition rate (%) of summergrass, Measured value) [%] | inhibition at 30 g/ha ([5]; Persicaria lapathifolia, dose 30 g/ha, read-out: Growth inhibition rate (%) of spotted knotweed, Measured value) [%] | Growth inhibition rate (%) of common cocklebur, Measured value ([1]; dose 1000 g/ha) [%] | Growth inhibition rate (%) of Japanese millet, Measured value ([2]; dose 500 g/ha) [%] | Growth inhibition rate (%) of wild oat, Measured value ([3]; dose 250 g/ha) [%] | Growth inhibition rate (%) of wild oat, Measured value ([3]; dose 2000 g/ha) [%] | Growth inhibition rate (%) of summergrass, Measured value ([4]; dose 500 g/ha) [%] | Growth inhibition rate (%) of summergrass, Measured value ([4]; dose 2000 g/ha) [%] | Growth inhibition rate (%) of spotted knotweed, Measured value ([5]; dose 1000 g/ha) [%]
COc1cc(OC)nc(NC(=O)NS(=O)(=O)c2ncccc2C(=O)N(C)C)n1 [Nicosulfuron, 2-(4,6-dimethoxypyrimidin-2-ylcarbamoylsulfamoyl)-N,N-dimethylnicotinamide] | 0 | 5 | 10 | 40 | 53 | 75 |  |  |  |  |  |  | 
a mixture of (aRS,1S)-2-chloro-6′-ethyl-N-(2-methoxy-1-methylethyl)aceto-o-toluidide (80 to 100%) and (aRS,1R)-2-chloro-6′-ethyl-N-(2-methoxy-1-methylethyl)aceto-o-toluidide (20 to 0%) [S-metolachlor] |  |  |  |  |  |  | 0 | 80 | 15 | 60 | 0 | 0 | 0
